Experimental data published in ChEMBL document CHEMBL5244223, “l,8-Naphthalimide based DNA intercalators and anticancer agents. A systematic review from 2007 to 2017” (Eur J Med Chem, 2018).
pIC50: −log10 of the molar value. Converted amounts (≈) assume the structure as drawn. Each block holds one compound with its values, some of them ahead of it.

What was measured:
HCT-116 = experiment: Cytotoxicity against human HCT-116 cells assessed as inhibition of cell growth incubated for 24 hrs by XTT assay; assay type: functional, cell-based; settings: HCT-116, 24 h
PANC-1 = experiment: Cytotoxicity against human PANC-1 cells assessed as inhibition of cell growth incubated for 24 hrs by XTT assay; assay type: functional, cell-based; settings: PANC-1, 24 h
HeLa [1] = experiment: Cytotoxicity against human HeLa cells assessed as inhibition of cell growth incubated for 48 hrs by MTT spectrophotometric assay; assay type: functional, cell-based
SGC-7901 [2] = experiment: Cytotoxicity against human SGC-7901 cells assessed as inhibition of cell growth incubated for 48 hrs by MTT spectrophotometric assay; assay type: functional, cell-based; settings: SGC-7901, 48 h
A549 [3] = experiment: Cytotoxicity against human A549 cells assessed as inhibition of cell growth incubated for 48 hrs by MTT spectrophotometric assay; assay type: functional, cell-based; settings: A549, 48 h
Calf thymus DNA [4] = experiment: Binding affinity to calf thymus DNA assessed as binding constant by UV-Vis spectroscopic analysis; assay type: nucleic-acid assay; settings: Bos taurus
HL-60 = experiment: Cytotoxicity against human HL-60 cells assessed as inhibition of cell growth incubated for 96 hrs by MTT assay; assay type: functional, cell-based; settings: HL-60, 96 h
U-937 = experiment: Cytotoxicity against human U-937 cells assessed as inhibition of cell growth incubated for 96 hrs by MTT assay; assay type: functional, cell-based; settings: U-937, 96 h
SK-MEL-28 = experiment: Growth inhibition against human SK-MEL-28 cells at 10 uM incubated for 48 hrs by sulforhodamine B reagent assay; assay type: functional; settings: read-out: GI
SMMC-7721 = experiment: Antiproliferative activity against human SMMC-7721 cells assessed as inhibition of cell proliferation incubated for 48 hrs by MTT assay; assay type: functional, cell-based; settings: SMMC-7721, 48 h
MCF7 [5] = experiment: Antiproliferative activity against human MCF7 cells assessed as inhibition of cell proliferation incubated for 48 hrs by MTT assay; assay type: functional, cell-based; settings: MCF7, 48 h
HeLa [6] = experiment: Antiproliferative activity against human HeLa cells assessed as inhibition of cell proliferation incubated for 48 hrs by MTT assay; assay type: functional, cell-based
MCF7 [7] = experiment: Antiproliferative activity against human MCF7 cells assessed as inhibition of cell proliferation; assay type: functional, cell-based
HT-29 = experiment: Antiproliferative activity against human HT-29 cells assessed as inhibition of cell proliferation; assay type: functional, cell-based
Calf thymus DNA [8] = experiment: Binding affinity to calf thymus DNA assessed as DNA intercalation by measuring change in melting temperature by thermal denaturation assay based UV-Vis spectrophotometric analysis; assay type: nucleic-acid assay; settings: Bos taurus
HeLa [9] = experiment: Cytotoxicity against human HeLa cells assessed as inhibition of cell growth by MTT assay; assay type: functional, cell-based
MCF7 [10] = experiment: Cytotoxicity against human MCF7 cells assessed as inhibition of cell growth by MTT assay; assay type: functional, cell-based
SGC-7901 [11] = experiment: Cytotoxicity against human SGC-7901 cells assessed as inhibition of cell growth by MTT assay; assay type: functional, cell-based
A549 [12] = experiment: Cytotoxicity against human A549 cells assessed as inhibition of cell growth by MTT assay; assay type: functional, cell-based
Calf thymus DNA [13] = experiment: Binding affinity to calf thymus DNA assessed as DNA intercalation by measuring binding constant by fluorescence spectroscopic assay; assay type: nucleic-acid assay; settings: Bos taurus
Calf thymus DNA [14] = experiment: Binding affinity to calf thymus DNA assessed as DNA intercalation by measuring change in melting temperature by thermal denaturation assay; assay type: nucleic-acid assay; settings: Bos taurus
A2780 = experiment: Cytotoxicity against human A2780 cells assessed as inhibition of cell growth incubated for 72 hrs by SRB assay; assay type: functional, cell-based; settings: A2780, 72 h
Staphylococcus aureus = experiment: Antibacterial activity against Staphylococcus aureus MTCC 96 assessed as inhibition of bacterial growth by agar well diffusion assay; assay type: functional
[15] = test system: Staphylococcus epidermidis; experiment: Antibacterial activity against Staphylococcus epidermidis MTCC 435 assessed as inhibition of bacterial growth by agar well diffusion assay; assay type: functional
Escherichia coli = experiment: Antibacterial activity against Escherichia coli MTCC 443 assessed as inhibition of bacterial growth by agar well diffusion assay; assay type: functional
Pseudomonas aeruginosa = experiment: Antibacterial activity against Pseudomonas aeruginosa MTCC 741 assessed as inhibition of bacterial growth by agar well diffusion assay; assay type: functional
Calf thymus DNA [16] = experiment: Binding affinity to calf thymus DNA assessed as binding constant incubated for 30 mins by fluorescence based EtBr-displacement assay; assay type: nucleic-acid assay; settings: Bos taurus
[17] = Antioxidant activity assessed as DPPH radical scavenging activity incubated for 30 mins by UV-Vis spectrophotometer assay; assay type: functional
[18] = Antioxidant activity assessed as hydrogen peroxide free radical scavenging activity incubated for 10 mins; assay type: functional

Compound: CN(C)CCN1C(=O)c2cccc3c(N(C)CCCl)ccc(c23)C1=O
pIC50 (HCT-116): 5.72 | pIC50 (PANC-1): 5.72

Compound: CN(C)CCN1C(=O)c2cccc3c(N(CCCl)CCCl)ccc(c23)C1=O
pIC50 (HCT-116): 5.72 | pIC50 (PANC-1): 5.72

Compound: O=C1c2cccc3c([N+](=O)[O-])ccc(c23)C(=O)N1CCCCl
pIC50 (HL-60): 6.52 | pIC50 (U-937): 6.52

Compound: CN1CCN(c2ccc3nc(-c4ccc(OCCCCN5CCN(CCCCN6C(=O)c7cccc8cccc(c78)C6=O)CC5)cc4)[nH]c3c2)CC1
inhibition of growth at 10 µM (SK-MEL-28): 50%

Compound: C[n+]1ccn(CCCN2C(=O)c3cccc4cccc(c34)C2=O)c1
pIC50 (MCF7 [7]): 5.34 | pIC50 (HT-29): 5.34 | ΔTm (Calf thymus DNA [8]): 3 °C

Compound: O=C1c2cccc3c([N+](=O)[O-])ccc(c23)C(=O)N1CCO
pIC50 (HL-60): 6.15 | pIC50 (U-937): 6.15

Compound: COc1cccc2cc(-c3csc(N4C(=O)c5ccc6c7c(ccc(c57)C4=O)C(=O)N(c4nc(-c5cc7cccc(OC)c7oc5=O)cs4)C6=O)n3)c(=O)oc12
ΔTm (Calf thymus DNA [14]): 0.1 °C | pIC50 (A2780): > 7.00 | MIC (Staphylococcus aureus): 18.8 µg/mL (≈ 24 µM) | MIC [15]: 18.8 µg/mL (≈ 24 µM) | MIC (Escherichia coli): 18.8 µg/mL (≈ 24 µM) | MIC (Pseudomonas aeruginosa): 18.8 µg/mL (≈ 24 µM)

Compound: O=C1c2cccc3cccc(c23)C(=O)N1CCCn1cc[n+](Cc2ccccc2)c1
pIC50 (MCF7 [7]): 5.34 | pIC50 (HT-29): 5.34 | ΔTm (Calf thymus DNA [8]): 3 °C

Compound: O=C1c2cccc3cccc(c23)C(=O)N1CCCCCN1CCN(CCCCCOc2ccc(-c3nc4ccc(N5CCOCC5)cc4[nH]3)cc2)CC1
inhibition of growth at 10 µM (SK-MEL-28): 50%

Compound: COc1cccc(/C=N/N2C(=O)c3cccc4cccc(c34)C2=O)c1O
Kb (Calf thymus DNA [16]): 2.25 10^4/M | IC50 [17]: 1430 µg/mL (≈ 4130 µM) | IC50 [18]: 1170 µg/mL (≈ 3380 µM)

More lines, main results first:

Kb (Calf thymus DNA [4]): 0.47 10^5/M
Compound: CN(C)CCN1C(=O)c2cccc3c(N4CCN(CCO)CC4)ccc(c23)C1=O
pIC50 (HeLa [1]): > 5.15 | pIC50 (SGC-7901 [2]): > 5.15 | pIC50 (A549 [3]): > 5.15

Kb (Calf thymus DNA [4]): 5.1 10^5/M | pIC50 (SMMC-7721): 6.52 | pIC50 (MCF7 [5]): 6.52 | pIC50 (HeLa [6]): 6.52
Compound: CN(C)CCN1C(=O)c2cccc3cc(-n4ccnn4)cc(c23)C1=O

Kb (Calf thymus DNA [13]): 1.8 10^4/M
Compound: CN(C)CCN1C(=O)c2cccc3c(N4CC[C@H](O)C4)ccc(c23)C1=O
pIC50 (HeLa [9]): 6.06 | pIC50 (MCF7 [10]): 6.06 | pIC50 (SGC-7901 [11]): 6.06 | pIC50 (A549 [12]): 6.06

Kb (Calf thymus DNA [13]): 1.8 10^4/M
Compound: CN(C)CCN1C(=O)c2cccc3c(N4CC[C@@H](O)C4)ccc(c23)C1=O
pIC50 (HeLa [9]): 6.06 | pIC50 (MCF7 [10]): 6.06 | pIC50 (SGC-7901 [11]): 6.06 | pIC50 (A549 [12]): 6.06

pIC50 (MCF7 [7]): 5.34 | pIC50 (HT-29): 5.34 | ΔTm (Calf thymus DNA [8]): 3 °C
Compound: CCSc1ccc2c3c(cccc13)C(=O)N(CCCn1cc[n+](C)c1)C2=O

Kb (Calf thymus DNA [13]): 1.8 10^4/M
Compound: CN(C)CCN1C(=O)c2cccc3c(N4CCC[C@H]4CO)ccc(c23)C1=O
pIC50 (HeLa [9]): 6.06 | pIC50 (MCF7 [10]): 6.06 | pIC50 (SGC-7901 [11]): 6.06 | pIC50 (A549 [12]): 6.06
